Laboratory results: PubChem BioAssay (NCI)
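Method: 48-hour compound exposure of cells in 96-well plates, five concentrations, linear interpolation of endpoints. The concentration for 50% growth inhibition is given as GI50. TGI: total growth inhibition.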

How the values were obtained:
Experiment in all cases: growth of human tumour cells (NCI), 48 h
OVCAR-8 ovarian = system: OVCAR-8 ovarian
786-0 renal = system: 786-0 renal
BT-549 breast = system: BT-549 breast
OVCAR-3 ovarian = system: OVCAR-3 ovarian
NCI-H460 lung = system: NCI-H460 lung
RXF 393 renal = system: RXF 393 renal
HL-60(TB) leukemia = system: HL-60(TB) leukemia
UACC-62 melanoma = system: UACC-62 melanoma
HT29 colon = system: HT29 colon
HOP-62 NSCLC = system: HOP-62 NSCLC

Row | SMILES | GI50 (OVCAR-8 ovarian) [µM] | TGI (OVCAR-8 ovarian) [µM] | GI50 (786-0 renal) [µM] | TGI (786-0 renal) [µM] | GI50 (BT-549 breast) [µM] | TGI (BT-549 breast) [µM] | GI50 (OVCAR-3 ovarian) [µM] | TGI (OVCAR-3 ovarian) [µM] | GI50 (NCI-H460 lung) [µM] | TGI (NCI-H460 lung) [µM] | GI50 (RXF 393 renal) [µM] | TGI (RXF 393 renal) [µM] | GI50 (HL-60(TB) leukemia) [µM] | TGI (HL-60(TB) leukemia) [µM] | GI50 (UACC-62 melanoma) [µM] | TGI (UACC-62 melanoma) [µM] | GI50 (HT29 colon) [µM] | TGI (HT29 colon) [µM] | GI50 (HOP-62 NSCLC) [µM] | TGI (HOP-62 NSCLC) [µM]
1 | Cc1[nH][nH]c(=O)c1C=Nc1ccc(-c2nc3ccccc3[nH]2)cc1 | 20.7 | 54.6 | 18.9 | 38.3 | 36.2 | 97.1 | 14.9 | 36 | 33.3 | > 100 | 11.1 | 46.6 | 22.6 | > 100 | 15.5 | 38 |  |  |  | 
2 | Cc1[nH]n(-c2cccc(Cl)c2)c(=O)c1/C=C1\C=Nc2ccc(Br)cc21 | 3.52 | 13.8 | 2.14 | 4.68 | 7.89 | 30 | 1.82 | 3.54 | 1.78 | 3.53 | 1.86 | 4.01 | 4.02 | 33.6 | 4.34 | 18.2 | 4.5 | > 100 | 2.33 | 5.14
3 | COc1ccc(C2C(C#N)=C(N)OC3=C2COc2ccc(F)cc23)cc1OC (stereo unspecified) | 28.5 | > 100 | 25.6 | > 100 | 28.9 | > 100 | 17.5 | 43.5 | 40 | > 100 | 69.3 | > 100 | 34.2 | 70.8 | 15.1 | 44.3 |  |  | 27.9 | > 100
4 | O=C(O)c1cccc(OCCO)c1 |  | > 100 |  | > 100 |  | > 100 |  | > 100 |  | > 100 |  | > 100 |  | > 100 |  | > 100 |  | > 100 |  | > 100
5 | O=C(O)c1c(-c2nccc3ccccc23)[nH]c(-c2ccccc2)c1S(=O)(=O)O |  | > 100 |  | > 100 |  | > 100 |  | > 100 |  | > 100 |  | > 100 |  | > 100 |  | > 100 |  | > 100 |  | > 100
6 | NC(=O)C(=CNc1nc(-c2ccc(Cl)c(Cl)c2)cs1)C(N)=O | 80.7 | > 100 | > 100 | > 100 | > 100 | > 100 | 41.6 | > 100 | 69.7 | > 100 | > 100 | > 100 | 42.8 | > 100 | > 100 | > 100 | > 100 | > 100 | > 100 | > 100
7 | O=C(CCCN1CC=C(n2c(=O)[nH]c3ccccc32)CC1)c1ccc(F)cc1 | 32.9 | > 100 | 29.3 | > 100 | 24.9 | 86.8 | 31.4 | > 100 | 35.2 | > 100 | 19 | > 100 | 24.3 | 67.4 | 42.7 | > 100 | 27.6 | > 100 | 57.6 | > 100
8 | Cc1cn2c(/C=C3/C(=O)Nc4ccccc43)c(-c3ccc(Cl)cc3)nc2s1 | 10.2 | 23.6 | 7.08 | 13.6 | 9.32 | 19.3 | 9.82 | 17.9 | 8.14 | 22.1 | 3.72 | 12.9 |  |  | 5.49 | 11.5 | 9.23 | 16.2 | 8.46 | 15.3
9 | CC(=O)Oc1ccccc1C(=O)N=C1[Se]CCCN1C(=O)c1ccccc1OC(C)=O |  |  | 2.14 | 4.21 | 2.29 | 6.66 |  |  | 2 | 5.5 | 2.48 | 6.92 | 2.14 | 5.63 |  |  | 3.15 | 8.73 | 1.61 | 3.01
10 | CC(=O)c1c(CBr)n([O-])c2ccccc2[n+]1=O | 18.1 | 40.7 | 5.59 | 17.7 | 9.61 | 21.5 | 3.14 | 7.67 |  |  | 15.3 | 32.6 | 5.49 | 22.6 | 14.9 | 28.6 | 8.34 | 25.9 | 15.6 | 29.7
11 | OCCCCC#Cc1ccccc1C#Cc1cccc(O)c1 | 18.2 | 36.9 | 13.8 | 29.2 | 16 | 42.1 | 20 | 44.1 | 18.5 | 40.7 | 2.3 | 13.9 | 19.4 | 41.9 | 13.3 | 26.9 | 17.1 | 31.8 |  | 
12 | C#CC(=O)Nc1cccc(Nc2nc3c(c(NCc4ccccc4)n2)CCCC3)c1 | 0.0144 | 1.12 | < 0.01 | < 0.01 | 0.0266 | 0.0776 | 0.042 | 0.175 |  |  | 0.0389 | 0.239 |  |  | 0.0851 | 0.279 |  |  | 0.0612 | 0.435
13 | COC(COC(=O)N1CCN(C=O)CC1)C1=C(N2CC2)C(=O)C(C)=C(N2CC2)C1=O (stereo unspecified) |  | 1.36 |  | 0.43 |  | 1.97 |  | 2.52 |  | 0.8 |  | 0.815 |  |  |  | 1.35 |  | 0.999 |  | 6.57
14 | O=C(O)Cc1c(O)ccc2ccccc12 |  | > 100 |  | > 100 |  | > 100 |  | > 100 |  | > 100 |  | > 100 |  |  |  | > 100 |  | > 100 |  | > 100
15 | O=C(O)c1ccccc1-c1ccccc1C(=O)Nc1ccc2c(c1)Cc1cc(F)ccc1-2 |  | > 100 |  | > 100 |  | 40.2 |  | 45.6 |  | 68.2 |  | > 100 |  |  |  | 36.8 |  | > 100 |  | 87.4
16 | COc1cc2cn3c4ccc(O)cc4[nH]c(=O)c3c2cc1OC | 0.0319 | 1.53 | 0.0715 | 2.02 | 0.435 | 2.26 | < 0.01 | 0.214 |  |  | < 0.0122 | 1.49 | 0.0264 | 2.3 | < 0.01 | 2.33 | 0.025 | 0.469 | 0.0338 | 1.81
